Laboratory results: US20020039780A1, “Salicyclic acid inducible genes and promoters” (priority 1998, published 2002)

Legend:
Assay type in all cases: cell-based
IEGT-Luc2 lines = assay: Promoter-luciferase reporter activity in leaves of transgenic tobacco; conditions: leaf halves infiltrated with 1 mM SA or water for 4-12 hours; all ten lines
Experimental: (§1) FIG. 8. A. Schematic representation of the set-up of the experiment investigating SA-inducible gene expression in plants carrying a promoter-luciferase reporter construct. Parts of the leaves of transgenic plants are harvested, split and one half treated by infiltration by SA. The other half is treated with water. Then both halves are sprayed with luciferin solution and tested for luminescence. B. Results of the experiment using leaves of tobacco transgenic for the IEGT/G1-1 promoter-luciferase reporter construct. On the picture, the lefthand side of the leave was infiltrated with SA, the right hand side infiltrated with water. Increased luminescence is indicated by the lighter colors.
(§2) Amplified fragments were digested with BamHI and HindIII and subcloned into BamHI and HindIII-digested vector VIP11•-FFLuc (Anderson et al., 1994, Plant J. 4, 457-470) containing the firefly luciferase gene. This vector positions the promoter sequences directly upstream the promoterless FFLuc gene. […]
(§3) Leaves of primary transformants or S1 progeny were tested for reporter gene activity by excising halves of the leaves, splitting and infiltration with either water or 1 mM SA for 4-12 hours. Leaves were then sprayed with the reporter substrate luciferin (1 mM luciferin with 0.1% Triton X-100 in water) and the luminescence counted by video-imaging and quantitation equipment (schematically shown in FIG. 8A).

IEGT-Luc1 lines = assay: as above; conditions: leaf halves infiltrated with 1 mM SA for 4-12 hours; six out of ten lines
Experimental: as §1, §2, §3

G3-2 = assay: Northern analysis of mRNA accumulation in cultured tobacco cells
Experimental: FIG. 1. Four classes of SA-induced early genes. Northern analysis of genes identified by differential display. Gel-purified DNA fragments produced by ddPCR were either used directly for random-primed labeling and probing of Northern filters (e.g. C7-1, C6-1, and G9-2) or first subcloned and released by restriction digest. Each lane contains 1 μg of poly(A) mRNA from cultured tobacco cells treated with (1) H2O, 4 hr; (2) 200 μM SA, 4 hr; (3) 71 μM CHX, 5 hr; (4) 71 μM CHX, 5 hr plus 200 μM SA after 1 hr (4 hr total); (5) 20 μM SA, 2 hr; (7) 200 μM SA, 8 hr. One blot was sequentially hybridized with the G1-1 fragment and the β-ATPase gene as a loading control probe. response classes (I-IV) are indicated on the left of the autoradiograms.
FIG. 2. Time course of SA-induced gene expression. Northern analysis of representative differential display genes following treatment of cultured tobacco cells with SA for the indicated time (in hours, except lanes 2-4, which refer to 10, 20, and 30 min.). Twenty micrograms of total RNA was loaded per lane. Blots were hybridized with ddPCR fragments indicated at right or with the β-ATPase gene as a loading control probe. Autoradiogram exposure times were optimized for each gene. The signal for C18-1 was enhanced by using the full length cDNA as probe. Labels on left indicate response class.
FIG. 4. Specificity of induction among SA analogs and other signalling compounds. Northern analysis of representative differential display genes following treatment of tobacco cells with 100 μM or 1 mM (left and right side of triangles, respectively) of the following chemicals for 2-2.5 hr: salicylic acid (SA, lanes 4 and 5), acetylSA (ASA, lanes 6 and 7), benzoic acid (BA, lanes 8 and 9), 4-hydroxybenzoic (4HBA, lanes 10 and 11), thiamine (thia, lanes 12 and 13), methyljasmonate (MJ, lanes 14 and 15), abscisic acid (ABA, lanes 16 and 17), or 2,4-dichlorophenoxyacetic acid (2,4-D, lanes 18 and 19). Control treatments are H2O (H, lane 1), 1% ethanol (E, solvent concentration in MJ treatments, lane 2), or 1% DMSO (D, solvent concentration in 2,4D treatments, lane 3). Blots were hybridized with ddPCR fragments indicated at right or with the β-ATPase geneas a loading control probe. Autoradiogram exposure times were optimized for each gene. The signal for C18-1 was enhanced by using the full length cDNA as probe. Labels on left indicate response class.
Differential display technology (Liang, P. and Pardee, A. B., Science 257: 967-971, 1992) was used to identify genes activated in the presence of SA, CHX and both. Therefore the absence or presence of SA, induction at 3 timepoints of SA-treatment, 2 different concentrations of SA and the effect of addition of CHX were measured. Seven treatments in total were performed. Treatment of tobacco BY-2 suspension cells and leaves and differential display PCR reactions were performed as described (Horvath and Chua (1996), Plant Mol. Biol. 31, 1061-1072).
The specificity for induction by SA was tested by treating tobacco cells with a range of SA analogs and plant signalling compounds at 0.1 and 1 mM for approximately 2.5 h. […] Among the SA-analogs, acetyl-SA (ASA, aspirin), benzoic acid (BA) and 4-hydroxybenzoic acid (4HBA), responses generally reflected the ability of the analog to substitute for SA in other cellular responses (Yalpani, N. et al., Plant Cell 3: 809-818, 1991, Yang, Y. and Klessig, D. F., Proc. Natl. Acad. Sci. 93, 14972-14977, 1996). […] Several genes, including those for proteinase inhibitors and lipoxygenase (Hildmann, T. et al., Plant Cell 4: 1157-1170, 1992; Melan, M. A. et al., Plant Physiol. 101: 441-450, 1993; Xu, D. et al., Plant Mol. Biol. 22: 573-588, 1993) are known to be under dual regulation by MJ and ABA. A similar mode of regulation may be in effect with C14-1b. the auxin 2,4-D induced several genes including C18-1/EREBP1 and C6-2.

- luciferase activity (IEGT-Luc2 lines): only baseline activity
Structure (SMILES): O=C(O)c1ccccc1O [SA, salicylic acid]
- SA-induced luciferase expression over controls (IEGT-Luc1 lines): 2.3-6 fold
- G3-2 mRNA levels at 20 μM SA (G3-2; 20 μM SA): comparable to those at 200 μM
- G3-2 induction at 0.1 mM versus 1 mM (G3-2; 0.1 and 1 mM, approximately 2.5 h): equal or greater induction at 0.1 mM versus 1 mM
- G3-2 mRNA levels between 2 and 12 h (G3-2; SA time course): increased steadily
- time before which G3-2 is not detectably activated (G3-2; SA time course): ≥ 2 h
- sensitivity of G3-2 to SA (G3-2; data not shown): similarly sensitive as G8-1
